Source: article PMC6934184, “Selective DNA-PKcs inhibition extends the therapeutic index of localized radiotherapy and chemotherapy” (The Journal of Clinical Investigation, 2019)

Target: T1, LATS2 (Homo sapiens, UniProt Q9NRM7)
T1 construct: purchased Thermo Fisher Scientific (Life Technologies) SelectScreen
Experiment: SelectScreen LanthaScreen
Type: binding
Conditions: 1 µM
Summary of the method: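 NU5455 was profiled across the SelectScreen Broad panel of kinase activity and binding assays. Z'LYTE reactions such as CSF1R ran at apparent Km ATP, while the Adapta CAMK1 assay used ATP listed as 10. Values are given as percent.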

T1 sequence (Q9NRM7 whole entry): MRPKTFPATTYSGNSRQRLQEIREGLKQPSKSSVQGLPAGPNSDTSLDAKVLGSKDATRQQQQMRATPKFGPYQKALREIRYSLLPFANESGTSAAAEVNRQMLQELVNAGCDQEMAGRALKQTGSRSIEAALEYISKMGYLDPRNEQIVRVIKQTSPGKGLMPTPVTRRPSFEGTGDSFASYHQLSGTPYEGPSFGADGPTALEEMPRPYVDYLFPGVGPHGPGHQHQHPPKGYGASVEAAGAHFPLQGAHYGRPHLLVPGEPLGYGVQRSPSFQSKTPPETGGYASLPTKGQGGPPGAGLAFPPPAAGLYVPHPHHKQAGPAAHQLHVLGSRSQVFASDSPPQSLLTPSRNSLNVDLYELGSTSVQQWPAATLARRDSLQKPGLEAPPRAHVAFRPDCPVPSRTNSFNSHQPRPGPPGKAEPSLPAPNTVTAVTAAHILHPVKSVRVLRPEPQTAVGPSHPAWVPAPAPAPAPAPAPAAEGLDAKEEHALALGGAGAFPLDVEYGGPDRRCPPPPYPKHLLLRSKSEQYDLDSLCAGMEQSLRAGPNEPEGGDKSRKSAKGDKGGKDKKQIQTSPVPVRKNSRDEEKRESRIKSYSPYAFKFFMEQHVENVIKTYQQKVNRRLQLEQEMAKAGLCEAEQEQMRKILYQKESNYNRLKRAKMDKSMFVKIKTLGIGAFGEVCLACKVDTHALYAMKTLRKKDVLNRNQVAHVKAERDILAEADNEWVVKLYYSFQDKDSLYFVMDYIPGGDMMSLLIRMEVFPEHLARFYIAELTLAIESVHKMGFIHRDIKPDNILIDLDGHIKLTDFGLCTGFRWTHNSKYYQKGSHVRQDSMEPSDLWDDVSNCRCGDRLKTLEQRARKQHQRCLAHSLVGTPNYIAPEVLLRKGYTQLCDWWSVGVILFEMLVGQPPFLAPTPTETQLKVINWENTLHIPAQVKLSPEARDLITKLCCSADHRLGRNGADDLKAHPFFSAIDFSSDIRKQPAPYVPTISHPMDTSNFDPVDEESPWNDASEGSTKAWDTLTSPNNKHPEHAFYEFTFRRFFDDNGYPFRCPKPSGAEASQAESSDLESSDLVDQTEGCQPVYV

CN(C(=O)CN1CCOCC1)c1ccc2sc3c(-c4cccc5c(=O)cc(N6CC7CCC(C6)O7)oc45)cccc3c2c1 [NU5455] was tested, and the “% displacement” value was 4.7%.
